Test results: patent US20080200492A1, “METHODS FOR THE TREATMENT OF ALCOHOL ABUSE, ADDICTION AND DEPENDENCY” (priority 2006, published 2008)

Tests used:
alcohol preferring rats [1] = assay: Alcohol Preferring Rats, Study B: Post-Deprivation Effect; type: in vivo, rat; conditions: 20 mg/kg, 45 min before re-exposure to alcohol after 72 hours deprivation
Procedure: (§1) Adult male selectively-bred alcohol preferring rats were used in this study. The selectively bred alcohol preferring rats are widely used to study the suppressant effects of compounds on voluntary alcohol intake (Faren et al. 2000; Rezvani et al, 1990, 1991, 1992a, 1992b, 1999, 2000, 2002; 2003; Murphy et al, 1988; Overstreet et al., 1992, 1999; Li and McBride, 1995).
(§2) The rats were housed individually under a constant room temperature of 22±1° C. and 12:12 light-dark cycle (7:00-19:00, dark). Animals were fed Agway Prolab Rat/Mouse/Hamster 3000 formula and water ad libitum.
(§3) Alcohol intake was determined using a standard two-bottle choice method (Murphy et al. 1988; McBride et al. 1990; Rezvani et al. 1990, 1991, 1993, 1995, 1997, Rezvani et al., 2007a,b; Rezvani and Grady, 1994). Animals were first given free access to water in a graduated Richter tube for 1 day. Next, they were given access to only a solution of 10% (v/v) ethanol for 3 consecutive days. During this period the animals became accustomed to drinking from Richter tubes and to the taste and pharmacological effects of alcohol. Thereafter, the animals were given free access to both water and a solution of 10% alcohol for 4 consecutive weeks and throughout of the study. The animals continued to have free access to food. Water and alcohol intake were recorded at 6 and 24 hour.
Following Study A, the rats were maintained on alcohol for 15 days without drug. On day 16 post-gavage, rats were put on food and water only for 72 hours. On the next day, 45 min before re-exposure to alcohol, the rats were treated with vehicle (0.5% methylcellulose), naltrexone (at 20 mg/kg) or compound of formula (I-A) (at 30-mg/kg). Alcohol intake was then measured at 1, 3, 6 and 24 hr after exposure.
The results are presented as a means. Alcohol intake (g/kg) was calculated by multiplying the volume of alcohol consumed in ml by 10% and 0.7893 (ethanol density)/body weight in kg. Alcohol preference, expressed as percentage was calculated as (volume of alcohol consumed in ml/total fluid intake in ml)×100 (Rezvani and Grady, 1994; Rezvani et al., 2007a). Statistical differences between drug-treated and control groups was determined by using ANOVA and Tukey Student's t test for multiple comparison.
The results from Study B provide a measure of the effectiveness of the test compound to suppress post-deprivation-induced craving for alcohol.

alcohol preferring rats [2] = assay: Alcohol Preferring Rats, Study A: Chronic Administration (14 days); type: in vivo, rat; conditions: 20 mg/kg once a day, gavage
Procedure: as §1, §2, §3
After establishment of a reliable baseline for alcohol, and water intake, the animals were randomly assigned to a treatment regimen. The animals were administered once a day, via gavage, either vehicle (0.5% methylcellulose) or compound of formula (I-A) (at 30 mg/kg) or naltrexone (at 20 mg/kg) for 14 consecutive days. A group of 6-7 animals was used for each treatment. Alcohol and water intake was recorded at 6 hrs and 24 hrs after administration.
The results are presented as a means ±SEM. Alcohol intake (g/kg) was calculated by multiplying the volume of alcohol consumed in ml by 10% and 0.7893 (ethanol density)/body weight in kg. Alcohol preference, expressed as percentage was calculated as (volume of alcohol consumed in ml/total fluid intake in ml)×100 (Rezvani and Grady, 1994; Rezvani et al., 2007a). Statistical differences between drug-treated and control groups was determined by using ANOVA and Tukey Student's t test for multiple comparison.
The results from Study A provide a measure of whether or not the animals develop tolerance to the suppressant effects of the test compound following a chronic treatment. In Tables 5-8 below, the abbreviation “(I-A)” stands for the compound of formula (I-A), the abbreviation “Naltx” stands for naltrexone, and the abbreviation “EtOH” stands for ethanol.

`O=C1CC[C@@]2(O)[C@H]3Cc4ccc(O)c5c4[C@@]2(CCN3CC2CC2)[C@H]1O5` [Naltrexone, naltrexone, reference compound] was tested, and the “% EtOH” value (alcohol preferring rats [1]; 1 Hour Post Dosing) was 95%, the Alcohol (alcohol preferring rats [1]; 1 Hour Post Dosing) was 0.48 g/kg and the “% EtOH” value (alcohol preferring rats [1]; 3 Hours Post Dosing) was 94%. For the same compound, the Alcohol (alcohol preferring rats [1]; 3 Hours Post Dosing) was 1.15 g/kg, the “% EtOH” value (alcohol preferring rats [1]; 6 Hours Post Dosing) was 87% and the Alcohol (alcohol preferring rats [1]; 6 Hours Post Dosing) was 2.35 g/kg. The “% EtOH” value (alcohol preferring rats [1]; 24 Hours Post Dosing) was 87%, the Alcohol (alcohol preferring rats [1]; 24 Hours Post Dosing) was 6.47 g/kg and the “Alcohol Preference” value (alcohol preferring rats [2]; Day 1, 6 Hour Intake) was 64 % EtOH. For the same compound, the “Alcohol Preference” value (alcohol preferring rats [2]; Day 1, 24 Hour Intake) was 65 % EtOH, the “Alcohol Preference” value (alcohol preferring rats [2]; Day 2, 6 Hour Intake) was 67 % EtOH and the “Alcohol Preference” value (alcohol preferring rats [2]; Day 2, 24 Hour Intake) was 68 % EtOH. The “Alcohol Preference” value (alcohol preferring rats [2]; Day 3, 6 Hour Intake) was 70 % EtOH, the “Alcohol Preference” value (alcohol preferring rats [2]; Day 3, 24 Hour Intake) was 68 % EtOH and the “Alcohol Preference” value (alcohol preferring rats [2]; Day 4, 6 Hour Intake) was 80 % EtOH. The “Alcohol Preference” value (alcohol preferring rats [2]; Day 4, 24 Hour Intake) was 77 % EtOH, the “Alcohol Preference” value (alcohol preferring rats [2]; Day 5, 6 Hour Intake) was 81 % EtOH and the “Alcohol Preference” value (alcohol preferring rats [2]; Day 5, 24 Hour Intake) was 79 % EtOH. For the same compound, the “Alcohol Preference” value (alcohol preferring rats [2]; Day 6, 6 Hour Intake) was 86 % EtOH, the “Alcohol Preference” value (alcohol preferring rats [2]; Day 6, 24 Hour Intake) was 72 % EtOH and the “Alcohol Preference” value (alcohol preferring rats [2]; Day 7, 6 Hour Intake) was 88 % EtOH. For the same compound, the “Alcohol Preference” value (alcohol preferring rats [2]; Day 7, 24 Hour Intake) was 84 % EtOH, the “Alcohol Preference” value (alcohol preferring rats [2]; Day 8, 6 Hour Intake) was 88 % EtOH and the “Alcohol Preference” value (alcohol preferring rats [2]; Day 8, 24 Hour Intake) was 85 % EtOH. The “Alcohol Preference” value (alcohol preferring rats [2]; Day 9, 6 Hour Intake) was 89 % EtOH, the “Alcohol Preference” value (alcohol preferring rats [2]; Day 9, 24 Hour Intake) was 89 % EtOH and the “Alcohol Preference” value (alcohol preferring rats [2]; Day 10, 6 Hour Intake) was 91 % EtOH. The “Alcohol Preference” value (alcohol preferring rats [2]; Day 10, 24 Hour Intake) was 85 % EtOH, the “Alcohol Preference” value (alcohol preferring rats [2]; Day 11, 6 Hour Intake) was 99 % EtOH and the “Alcohol Preference” value (alcohol preferring rats [2]; Day 11, 24 Hour Intake) was 99 % EtOH. For the same compound, the “Alcohol Preference” value (alcohol preferring rats [2]; Day 12, 6 Hour Intake) was 95 % EtOH, the “Alcohol Preference” value (alcohol preferring rats [2]; Day 12, 24 Hour Intake) was 97 % EtOH and the “Alcohol Preference” value (alcohol preferring rats [2]; Day 13, 6 Hour Intake) was 90 % EtOH. The “Alcohol Preference” value (alcohol preferring rats [2]; Day 13, 24 Hour Intake) was 95 % EtOH, the “Alcohol Preference” value (alcohol preferring rats [2]; Day 14, 6 Hour Intake) was 92 % EtOH and the “Alcohol Preference” value (alcohol preferring rats [2]; Day 14, 24 Hour Intake) was 89 % EtOH.
